Data as given in patent publication US9315496B2, “Benzopyrone derivative and use thereof” (HUAZHONG UNIVERSITY OF SCIENCE & TECHNOLOGY, priority 2011, dated 2016).
Where a name gives a salt, the structure may show the parent alone. Read-outs that look alike come from different tables or passages of the source.

Tests used:
5-HT2A receptor = 5-HT2A receptor (Rattus norvegicus, UniProt P14842); experiment: 5HT2A receptor binding assay ([3H]-Ketanserin, rat brain striatum membrane); conditions: read-out: 5HT2A inhibition %
dopamine D2 receptor = dopamine D2 receptor (Rattus norvegicus, UniProt P61169); experiment: D2 receptor binding assay (3H-Spiperone, rat brain striatum membrane); conditions: read-out: D2 inhibition %
Procedure: Rats were sacrificed by cervical dislocation on ice. Brain striatum was rapidly taken, and 2 brain striatums were combined into a centrifuge tube, to which 3 ml of buffer (0.05 M Tris-HCl buffer, containing NaCl 120 mM, KCl 5 mM, MgCl2 1 mM, CaCl2 1 mM) was added, homogenization was conducted for 3-4 s at level 4 for four times, and then 5 ml of buffer was then added. The weight of the homogenized tubes were adjusted using a balance, and centrifugation was conducted at 12000 r, 4° C. for 20 min. The supernatant was discarded, and 3 ml of buffer was added (0.05 M Tris-HCl buffer, containing NaCl 120 mM, KCl 5 mM, MgCl2 1 mM, CaCl2 1 mM). Vortex mixer was used for blending, and then 5 ml of buffer was added (0.05 M Tris-HCl buffer, containing NaCl 120 mM, KCl 5 mM, MgCl2 1 mM, CaCl2 1 mM). Centrifugation was conducted (repeated 3 times). After the centrifugations, the supernatant was discarded, and the pellets were stored at −80° C. for future use.
Beckman LS-6500 Multi-function Liquid Scintillation Counter was used.
(1) The prepared membrane was first applied with appropriate amount of homogenized liquid, and homogenizer was used for evenly dispersing. 15 tubes were mixed into a 100 ml container, and appropriate amount of homogenized liquid was added to give 50 ml of membrane suspension, which was reserved for future use.
(2) 100 μL of membrane preparation and 100 μL of buffer were added into each reaction tube.
(3) 100 μL of homogenized liquid was added into the total binding tube (TB), 100 μL of Butaclamol (final concentration 10^−5 M) was added into the non-specific binding tube (NB), and 100 μL of the test compound (final concentration 10^−5 M) was added into the specific binding tube (SB) for each compound.
(5) Each of the reaction tubes was incubated at 37° C. for 20 min. After the reaction was completed, the bound ligands were rapidly filtered under reduced pressure, and the ice-chilled assay buffer was used for adequate washing. The filter was taken out and put into a 3 ml scintillation vial, and 2 ml of toluene scintillation solution was added and blended.
(6) The scintillation vials were put into Liquid Scintillation Counter for counting. Inhibitory rate(1%)=(Total binding tube cpm−compound cpm)/(Total binding tube cpm−non-specific binding tube cpm)×100%
Each assay for the compounds was conducted in duplicate.

5-HT1A receptor = biological target: T1, 5-HT1A receptor (Rattus norvegicus, UniProt P19327); experiment: 5HT1A receptor binding assay (3H-8-OH-DPAT, rat brain striatum membrane); conditions: test compound final concentration 10^−5 M; 3H-8-OH-DPAT; rat brain striatum membrane
T1 sequence (P19327 1-422): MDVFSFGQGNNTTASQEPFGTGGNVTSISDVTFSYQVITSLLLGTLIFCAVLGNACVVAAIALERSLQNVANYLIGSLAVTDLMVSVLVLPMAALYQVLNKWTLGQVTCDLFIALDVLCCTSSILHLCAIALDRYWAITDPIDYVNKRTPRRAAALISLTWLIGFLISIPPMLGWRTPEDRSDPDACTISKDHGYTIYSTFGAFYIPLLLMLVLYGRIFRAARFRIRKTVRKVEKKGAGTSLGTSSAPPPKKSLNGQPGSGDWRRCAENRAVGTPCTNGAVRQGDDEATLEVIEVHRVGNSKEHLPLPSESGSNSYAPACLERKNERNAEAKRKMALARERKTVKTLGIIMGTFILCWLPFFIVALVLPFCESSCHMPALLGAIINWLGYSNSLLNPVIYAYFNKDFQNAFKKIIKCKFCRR
Procedure: Incubation at 37° C. was conducted for 10 min, the weight of the tubes were adjusted using a balance after incubation. […] Centrifugation was conducted and repeated 3 times.

[1] = test compound final concentration 10^−5 M, [3H]-Ketanserin, rat brain striatum membrane

5-HT2A receptor, sequence (P14842 whole entry): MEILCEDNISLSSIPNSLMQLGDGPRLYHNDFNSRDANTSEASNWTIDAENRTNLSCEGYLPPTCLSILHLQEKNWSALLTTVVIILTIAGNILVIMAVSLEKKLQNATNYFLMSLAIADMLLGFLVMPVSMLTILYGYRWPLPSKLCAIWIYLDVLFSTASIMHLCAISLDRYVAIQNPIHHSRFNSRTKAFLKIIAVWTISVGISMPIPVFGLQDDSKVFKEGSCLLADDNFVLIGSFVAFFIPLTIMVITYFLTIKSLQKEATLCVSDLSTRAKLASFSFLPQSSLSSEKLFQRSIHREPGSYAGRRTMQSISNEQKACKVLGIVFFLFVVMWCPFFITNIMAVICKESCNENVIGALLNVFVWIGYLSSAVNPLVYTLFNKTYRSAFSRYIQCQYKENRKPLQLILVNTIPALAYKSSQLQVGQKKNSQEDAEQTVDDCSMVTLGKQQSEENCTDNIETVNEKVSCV
dopamine D2 receptor, sequence (P61169 whole entry): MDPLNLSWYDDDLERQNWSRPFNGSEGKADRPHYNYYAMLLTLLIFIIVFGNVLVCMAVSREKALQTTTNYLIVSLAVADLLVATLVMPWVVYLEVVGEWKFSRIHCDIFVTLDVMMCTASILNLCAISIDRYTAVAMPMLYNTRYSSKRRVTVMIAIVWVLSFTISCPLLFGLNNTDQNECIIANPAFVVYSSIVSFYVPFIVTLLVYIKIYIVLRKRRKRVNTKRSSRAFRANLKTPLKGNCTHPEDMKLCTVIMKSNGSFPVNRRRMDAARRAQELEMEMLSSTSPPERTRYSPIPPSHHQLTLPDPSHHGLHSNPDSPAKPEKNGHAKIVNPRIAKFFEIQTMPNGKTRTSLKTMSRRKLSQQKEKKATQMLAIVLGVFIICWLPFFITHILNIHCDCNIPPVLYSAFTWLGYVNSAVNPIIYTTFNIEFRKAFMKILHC

Row | SMILES | melting point [°C] | inhibition at 10 µM (5-HT2A receptor; [1]) [%] | inhibition at 10 µM (dopamine D2 receptor) [%] | inhibition at 10 µM (5-HT1A receptor) [%] | inhibition at 10 µM (5-HT2A receptor) [%]
1 | O=c1ccc2ccc(OCCCCN3CCN(c4nsc5ccccc45)CC3)cc2o1 (as salt: hydrochloride) [Compound 2, 7-(4-(4-(3-(1,2-benzisothiazole)-1-piperazinyl)-n-butoxy))-2H-benzopyran-2-one] | 103 to 105 |  |  |  | 
2 | O=c1cc(-c2ccccc2)c2ccc(OCCCN3CCN(c4nsc5ccccc45)CC3)cc2o1 (as salt: hydrochloride) [Compound 12, 7-(3-(4-(3-(1,2-benzisothiazole)-1-piperazinyl)-n-propoxy))-4-phenyl-2H-benzopyran-2-one] | 96 to 98 |  |  |  | 
3 | O=c1cc(C(F)(F)F)c2ccc(OCCCN3CCN(c4nsc5ccccc45)CC3)cc2o1 (as salt: hydrochloride) [Compound 16, 7-(3-(4-(3-(1,2-benzisothiazole)-1-piperazinyl)-n-propoxy))-4-(trifluoromethyl)-2H-benzopyran-2-one] | 103 to 105 |  |  |  | 
4 | O=c1ccc2ccc(OCCCCN3CCN(c4nsc5ccccc45)CC3)cc2o1 [Compound 2, 7-(4-(4-(3-(1,2-benzisothiazole)-1-piperazinyl)-n-butoxy))-2H-benzopyran-2-one] |  | 103 | 80.6 | 99.4 | 
5 | O=c1ccc2ccc(OCCCN3CCC(c4noc5cc(F)ccc45)CC3)cc2o1 [Compound 3, 7-(3-(4-(3-(6-fluoro-benzisoxazole)-1-piperidyl)-n-propoxy))-2H-benzopyran-2-one] | 128 to 130 | 101 | 106 | 42.3 | 
6 | O=c1ccc2ccc(OCCCN3CCN(c4nsc5ccccc45)CC3)cc2o1 [Compound 4, 7-(3-(4-(3-(1,2-benzisothiazole)-1-piperazinyl)-n-propoxy))-2H-benzopyran-2-one] | 91 to 93 | 59.1 | 49.2 | 101 | 
7 | Cc1cc(=O)oc2cc(OCCCCN3CCN(c4nsc5ccccc45)CC3)ccc12 [Compound 5, 7-(4-(4-(3-(1,2-benzisothiazole)-1-piperazinyl)-n-butoxy))-4-methyl-2H-benzopyran-2-one] | 110 to 112 | 104 | 88.5 | 114 | 
8 | Cc1cc(=O)oc2cc(OCCCN3CCN(c4nsc5ccccc45)CC3)ccc12 [Compound 8, 7-(3-(4-(3-(1,2-benzisothiazole)-1-piperazinyl)-n-propoxy))-4-methyl-2H-benzopyran-2-one] | 113 to 115 | 88.6 | 73.8 | 98.5 | 
9 | Cc1cc(=O)oc2cc(OCCCCCN3CCC(c4noc5cc(F)ccc45)CC3)ccc12 [Compound 9, 7-(5-(4-(3-(6-fluoro-benzisoxazole)-1-piperidyl)-n-pentyloxy))-4-methyl-2H-benzopyran-2-one] | 119 to 121 | 120 | 102 | 88.8 | 
10 | Cc1cc(=O)oc2cc(OC/C=C/CN3CCC(c4noc5cc(F)ccc45)CC3)ccc12 [Compound 10, (E)-7-(4-(4-(3-(6-fluoro-benzisoxazole)-3-piperidyl)-but-2-enyloxy))-4-methyl-2H-benzopyran-2-one] | 129 to 130 | 109 | 111 | 102 | 
11 | O=c1cc(-c2ccccc2)c2ccc(OCCCN3CCC(c4noc5cc(F)ccc45)CC3)cc2o1 [Compound 11, 7-(3-(4-(3-(6-fluoro-benzisoxazole)-1-piperidyl)-n-propoxy))-4-phenyl-2H-benzopyran-2-one] | 185 to 187 | 57.8 | 18.5 | 35.3 | 
12 | O=c1cc(-c2ccccc2)c2ccc(OCCCCN3CCC(c4noc5cc(F)ccc45)CC3)cc2o1 [Compound 13, 7-(4-(4-(3-(6-fluoro-benzisoxazole)-1-piperidyl)-n-butoxy))-4-phenyl-2H-benzopyran-2-one] |  |  | 65.2 | 111 | 67.2
13 | O=c1cc(-c2ccccc2)c2ccc(OCCCCN3CCN(c4nsc5ccccc45)CC3)cc2o1 [Compound 14, 7-(4-(4-(3-(1,2-benzisothiazole)-1-piperazinyl)-n-butoxy))-4-phenyl-2H-benzopyran-2-one] | 116 to 118 | 83.4 | 68.6 | 95.5 | 
14 | O=c1cc(C(F)(F)F)c2ccc(OCCCN3CCC(c4noc5cc(F)ccc45)CC3)cc2o1 [Compound 15, 7-(3-(4-(3-(6-fluoro-benzisoxazole)-1-piperidyl)-n-propoxy))-4-(trifluoromethyl)-2H-benzopyran-2-one] | 146 to 148 | 83.3 | 94.6 | 107 | 
15 | O=c1cc(C(F)(F)F)c2ccc(OCCCN3CCN(c4nsc5ccccc45)CC3)cc2o1 [Compound 16, 7-(3-(4-(3-(1,2-benzisothiazole)-1-piperazinyl)-n-propoxy))-4-(trifluoromethyl)-2H-benzopyran-2-one] |  | 96.3 | 115 | 104 | 
16 | O=c1cc(C(F)(F)F)c2ccc(OCCCCN3CCC(c4noc5cc(F)ccc45)CC3)cc2o1 [Compound 17, 7-(4-(4-(3-(6-fluoro-benzisoxazole)-1-piperidyl)-n-butoxy))-4-(trifluoromethyl)-2H-benzopyran-2-one] | 125 to 127 | 95.9 | 92.3 | 101 | 
17 | Cc1cc(=O)oc2c(Cl)c(OCCCCN3CCN(c4nsc5ccccc45)CC3)ccc12 [Compound 20, 7-(4-(4-(3-(1,2-benzisothiazole)-1-piperazinyl)-n-butoxy))-4-methyl-8-chloro-2H-benzopyran-2-one] | 133 to 135 | 15.5 | 9.7 | 92.8 | 
18 | Cc1cc(=O)oc2c(Cl)c(OCCCN3CCC(c4noc5cc(F)ccc45)CC3)ccc12 [Compound 21, 7-(3-(4-(3-(6-fluoro-benzisoxazole)-1-piperidyl)-n-propoxy))-4-methyl-8-chloro-2H-benzopyran-2-one] | 185 to 187 | 90.1 | 32.9 | 101 | 
19 | Cc1cc(=O)oc2c(C)c(OCCCCN3CCN(c4nsc5ccccc45)CC3)ccc12 [Compound 24, 7-(4-(4-(3-(1,2-benzisothiazole)-1-piperazinyl)-n-butoxy))-4-8-dimethyl-2H-benzopyran-2-one] | 106 to 108 | 97.4 | 98.1 | 105 | 
20 | CCCc1cc(=O)oc2cc(OCCCCN3CCC(c4noc5cc(F)ccc45)CC3)ccc12 [Compound 25, 7-(4-(4-(3-(6-fluoro-benzisoxazole)-1-piperidyl)-n-butoxy))-4-n-propyl-2H-benzopyran-2-one] | 139 to 141 | 40.2 | 70.7 | 84.5 | 
21 | CCCc1cc(=O)oc2cc(OCCCCN3CCN(c4nsc5ccccc45)CC3)ccc12 [Compound 26, 7-(4-(4-(3-(1,2-benzisothiazole)-1-piperazinyl)-n-butoxy))-4-n-propyl-2H-benzopyran-2-one] |  | 129 | 61.9 | 99.7 | 
22 | CCc1cc(=O)oc2cc(OCCCCN3CCC(c4noc5cc(F)ccc45)CC3)ccc12 [Compound 27, 7-(4-(4-(3-(6-fluoro-benzisoxazole)-1-piperidyl)-n-butoxy))-4-ethyl-2H-benzopyran-2-one] |  | 124 | 84 | 65.7 | 
23 | CCc1cc(=O)oc2cc(OCCCCN3CCN(c4nsc5ccccc45)CC3)ccc12 [Compound 28, 7-(4-(4-(3-(1,2-benzisothiazole)-1-piperazinyl)-n-butoxy))-4-ethyl-2H-benzopyran-2-one] | 110 to 112 | 56.1 | 58.8 | 11 | 
24 | Cc1c(C)c2ccc(OCCCCN3CCC(c4noc5cc(F)ccc45)CC3)cc2oc1=O [Compound 29, 7-(4-(4-(3-(6-fluoro-benzisoxazole)-1-piperidyl)-n-butoxy))-3,4-dimethyl-2H-benzopyran-2-one] | 106 to 108 | 24.7 | 43.2 | 97.1 | 
25 | O=c1cc(CO)c2ccc(OCCCN3CCC(c4noc5cc(F)ccc45)CC3)cc2o1 [Compound 30, 7-(3-(4-(3-(6-fluoro-benzisoxazole)-1-piperidyl)-n-propoxy))-4-hydroxymethyl-2H-benzopyran-2-one] | 144 to 146 | 98.5 | 20.3 | 82.8 | 
26 | O=C1CC(c2ccccc2)c2ccc(OCCCCN3CCC(c4noc5cc(F)ccc45)CC3)cc2O1 (centres unmarked) [Compound 34] |  | 115 | 120 | 5.9 | 
